Results from patent US20060223775A1 (priority 1992, published 2006).

How the values were obtained:
Assay type in all cases: cell-based
[1] = test system: normal (NHF) human fibroblast; assay: Cell killing mediated by MVM-TK virions and gancyclovir (WST-1 colorimetric assay); details: mock or MVM-TK infected, WST-1, daily
Method: (§1) The efficiency and selectivity of cells killing mediated by the MVM/P387-TK virions and gancyclovir were assessed by infecting normal (NHF) and transformed (NBK) human fibroblast. The results of said experiments are described in the enclosed FIGS. 8 and 9.
(§2) Cell growth was daily monitored with the WST-1 colorimetric assay (Boehringer).
(§3) In FIG. 9, NHF and NBK cells were infected at different MoI and the cell survival was assessed after 4 days with the WST-1 assay in presence or absence of GCV.

[2] = test system: transformed (NBK) human fibroblast; assay: as above; details: WST-1, daily
Method: as §1, §2, §3

[3] = test system: luciferase gene under the control of a promoter activated by tTA; assay: Luciferase expression in clone NBK.MZ.tTA-2 electroporated with pUHC13-1
Method: Selected stably transfected NBK324 clones (G418 selection) were assayed for luciferase expression upon transient transfection (in absence or presence of tetracycline) with the plasmid pUHC13-1 (Gossen and Bujard). The plasmid pUHC13-1 is an expression vector containing the luciferase gene under the control of a promoter activated by tTA.
The best clone selected, NBK.MZ.tTA-2, upon electroporation at 230 volts and 1050 μF with 4 μg of pUHC13-1 is charaterized by the following results (expressed in relative luciferase unit rlu/μg protein): […]

| Structure (SMILES) | cell growth at different GCV concentrations [1] | GCV concentration at which growth was severely suppressed ([2]; MVM-TK infected NBK) [µg/mL] | cell growth at different GCV concentrations ([2]; mock infected NBK) | luciferase expression (relative luciferase unit) ([3]; tetracycline 10 ng ml, 4 μg pUHC13-1, 230 volts, 1050 μF) [rlu/μg protein] | luciferase expression (relative luciferase unit) ([3]; tetracycline 100 ng/ml, 4 μg pUHC13-1) [rlu/μg protein] | luciferase expression (relative luciferase unit) ([3]; tetracycline 1 μg/ml, 4 μg pUHC13-1) [rlu/μg protein] |
| --- | --- | --- | --- | --- | --- | --- |
| Nc1nc(O)c2ncn(COC(CO)CO)c2n1 [GCV, gancyclovir] | not affected | ≥ 3 | not affected | – | – | – |
| CN(C)[C@@H]1C(O)=C(C(N)=O)C(=O)[C@@]2(O)C(O)=C3C(=O)c4c(O)cccc4[C@@](C)(O)[C@H]3C[C@@H]12 [tetracycline] | – | – | – | 19212 | 2268 | 1568 |
